The target of experiment [1] is Glutamate receptor ionotropic, AMPA (Rattus norvegicus, UniProt P19490+P19491+P19492+P19493). Kind of experiment: biochemical.
Description: Binding affinity for ionotropic glutamate receptor AMPA using [3H]AMPA as radioligand, bound to synaptic membranes prepared from rat cerebral cortex
Experiment [2] has as its system Rattus norvegicus. Kind of experiment: Neuroprotective effect in rat after iv administration at a dose of 5 mg/kg/h for 4 h. It is filed as functional.
The species entered for experiment [3] is Rattus norvegicus. Kind of experiment: In vitro inhibitory effect on AMPA-induced DC potential in rat cortical slices; active. It is filed as functional.
For experiment [4], the system named is Rattus norvegicus. The experiment in a line: Neuroprotective effect in rat after iv administration at a dose of 30 mg/kg/h for 4 h. It is filed as functional.
Experiment [5] deals with Rattus norvegicus. Kind of experiment: Neuroprotective effect in rat after iv administration at a dose of 20 mg/kg/h for 4 h. It is filed as functional.
Experiment [6] concerns Rattus norvegicus. The experiment in a line: Neuroprotective effect in rat after iv administration at a dose of 2.5 mg/kg/h for 4 h. It is filed as functional.
The subject of experiment [7] is Rattus norvegicus. The experiment in a line: Neuroprotective effect in rat after iv administration at a dose of 15 mg/kg/h for 4 h. It is filed as functional.

Activity calls are given as the source filed them. The rule behind the calls is not given here. A value given as a limit tells only on which side of the number the result lay.

One may read the Ki as the dissociation constant of the complex between target and ligand, obtained from inhibition or displacement. Read a high Ki as lower affinity.

`Cc1ccccc1NC(=O)OCc1cn(-c2cc3nc(C(=O)O)c(O)nc3cc2[N+](=O)[O-])cn1` had a Ki in experiment [1] of 16 nM.

In the case of `O=C(O)Cc1cn(-c2cc3nc(C(=O)O)c(O)nc3cc2[N+](=O)[O-])cn1`, the affinity in experiment [1], expressed as Ki, was 530 nM.

Turning to `O=C(NCc1ccccc1Br)OCc1cn(-c2cc3nc(C(=O)O)c(O)nc3cc2[N+](=O)[O-])cn1`, the inhibitory constant (Ki) in experiment [1] is 29 nM.

As for `O=C(O)c1nc2cc(-n3ccc(=O)cc3)c([N+](=O)[O-])cc2nc1O`, the Ki in experiment [1] is 330 nM.

For the molecule `O=C(O)c1nc2cc(N3CCCCC3)c([N+](=O)[O-])cc2nc1O`, in experiment [1], the affinity, expressed as Ki, was 3800 nM.

In experiment [2], `O=C(Nc1cccc(C(=O)O)c1)OCc1cn(-c2cc3nc(C(=O)O)c(O)nc3cc2[N+](=O)[O-])cn1` showed an Activity of 2.3. The “activity call (active/inactive)” value in experiment [3] is “Active”. The molecule further came in with a Ki in experiment [1] of 27 nM.

In experiment [1], `O=C(O)c1nc2cc(N3CCC(O)CC3)c([N+](=O)[O-])cc2nc1O` had a Ki of 2500 nM. In other words, the single-digit micromolar range.

`O=C(Nc1ccc(Cl)cc1)OCc1cn(-c2cc3nc(C(=O)O)c(O)nc3cc2[N+](=O)[O-])cn1` displayed a Ki in experiment [1] of 30 nM.

Turning to `NS(=O)(=O)c1cccc2c1c([N+](=O)[O-])cc1nc(O)c(O)nc12` [NBQX], the Activity in experiment [4] amounted to 2.3.

`O=C(Nc1ccc(C(=O)O)cc1)OCc1cn(-c2cc3nc(C(=O)O)c(=O)[nH]c3cc2[N+](=O)[O-])cn1` returned a Ki in experiment [1] of 22 nM.

`O=C(O)Cn1c(=O)c(=O)[nH]c2cc([N+](=O)[O-])c(-n3ccnc3)cc21` [ZONAMPANEL] returned an Activity in experiment [4] of 0.5. Moreover, in experiment [3], the “activity call (active/inactive)” value was “Active”. The molecule further displayed a Ki in experiment [1] of 62 nM.

Consider `Cc1nccn1-c1cc2nc(C(=O)O)c(O)nc2cc1[N+](=O)[O-]`, for which, in experiment [1], the inhibitory constant (Ki) was greater than 10000 nM.

`O=C(Nc1ccccc1C(=O)O)OCc1cn(-c2cc3nc(C(=O)O)c(=O)[nH]c3cc2[N+](=O)[O-])cn1` came in with an inhibition constant (Ki) in experiment [1] greater than 900 nM.

`O=C(Nc1ccccc1Br)OCc1cn(-c2cc3nc(C(=O)O)c(O)nc3cc2[N+](=O)[O-])cn1`: affinity in experiment [1] was put at a Ki of 30 nM.

Molecule `O=C(Nc1ccccc1Cl)OCc1cn(-c2cc3nc(C(=O)O)c(O)nc3cc2[N+](=O)[O-])cn1` showed an inhibitory constant (Ki) in experiment [1] of 20 nM.

Turning to `O=C(Nc1cccc(Cl)c1)OCc1cn(-c2cc3nc(C(=O)O)c(O)nc3cc2[N+](=O)[O-])cn1`, in experiment [1], the affinity, expressed as Ki, was 18 nM.

In turn, `Cc1ccc(NC(=O)OCc2cn(-c3cc4nc(C(=O)O)c(O)nc4cc3[N+](=O)[O-])cn2)cc1` yielded an inhibition constant (Ki) in experiment [1] of 30 nM.

For `O=C(Nc1ccc(C(=O)O)cc1)OCCc1cn(-c2cc3nc(C(=O)O)c(=O)[nH]c3cc2[N+](=O)[O-])cn1`, the inhibition constant Ki in experiment [1] came out at 270 nM.

Molecule `Cc1cn(-c2cc3nc(C(=O)O)c(O)nc3cc2[N+](=O)[O-])cn1` displayed a Ki in experiment [1] of 1300 nM.

`O=C(O)c1nc2cc(-n3cnc(CO)c3)c([N+](=O)[O-])cc2[nH]c1=O` showed a Ki in experiment [1] of 2600 nM. This Ki lies about 2-fold higher than the previous one.

In experiment [5], `O=C(O)c1nc2cc(-n3ccnc3)c([N+](=O)[O-])cc2nc1O` had an Activity of 0.2. The “activity call (active/inactive)” value in experiment [3] is “Active”.

As for `O=C(Nc1ccc(C(=O)O)cc1)OCc1cn(-c2cc3nc(C(=O)O)c(O)nc3cc2[N+](=O)[O-])cn1`, in experiment [6], the Activity was determined as 3. In experiment [3], the “activity call (active/inactive)” value is “Active”.

For `Cc1cccc(NC(=O)OCc2cn(-c3cc4nc(C(=O)O)c(O)nc4cc3[N+](=O)[O-])cn2)c1`, the inhibitory constant (Ki) in experiment [1] was found to be 22 nM. In other words, the double-digit nanomolar range.

`O=C(O)c1nc2cc(-n3ccnc3)c([N+](=O)[O-])cc2[nH]c1=O` gave a Ki in experiment [1] of 560 nM.

As to `O=C(NCc1ccccc1)OCc1cn(-c2cc3nc(C(=O)O)c(=O)[nH]c3cc2[N+](=O)[O-])cn1`, the affinity in experiment [1] corresponds to a Ki of 67 nM.

As to `O=C(Nc1ccc(Br)cc1)OCc1cn(-c2cc3nc(C(=O)O)c(=O)[nH]c3cc2[N+](=O)[O-])cn1`, in experiment [1], the Ki stood at 32 nM. Against the preceding molecule, the Ki is about 2.1-fold lower.

As to `O=c1[nH]c2cc(-n3ccnc3)c([N+](=O)[O-])cc2[nH]c1=O` [YM-90K], the “activity call (active/inactive)” value in experiment [3] is “Active”. Besides, in experiment [1], affinity was put at a Ki of 100 nM. The molecule also yielded an Activity in experiment [7] of 2.8.

With `O=C(O)c1nc2cc(N3CCOCC3)c([N+](=O)[O-])cc2nc1O`, the inhibition constant Ki in experiment [1] is 2000 nM.

On to `O=C(NCc1cccc(Br)c1)OCc1cn(-c2cc3nc(C(=O)O)c(O)nc3cc2[N+](=O)[O-])cn1`, for which, in experiment [1], the affinity corresponds to a Ki of 100 nM.

In the case of `O=C(Nc1ccccc1)OCc1cn(-c2cc3nc(C(=O)O)c(O)nc3cc2[N+](=O)[O-])cn1`, affinity in experiment [1] was put at a Ki of 86 nM.

For the molecule `O=C(NCc1ccc(Br)cc1)OCc1cn(-c2cc3nc(C(=O)O)c(O)nc3cc2[N+](=O)[O-])cn1`, affinity in experiment [1] was put at a Ki of 47 nM. This Ki is about 1.8-fold lower than that of the molecule before.

With `O=C(Nc1ccccc1)OCc1cn(-c2cc3nc(C(=O)O)c(O)nc3cc2[N+](=O)[O-])ccc1=O`, the inhibitory constant (Ki) in experiment [1] is 170 nM.

In the case of `O=C(O)c1nc2cc(F)c([N+](=O)[O-])cc2nc1O`, the Ki in experiment [1] is 2000 nM.

Consider `O=C(Nc1cccc(Br)c1)OCc1cn(-c2cc3nc(C(=O)O)c(O)nc3cc2[N+](=O)[O-])cn1`, for which the affinity in experiment [1], expressed as Ki, was 16 nM. This Ki lies about 120-fold lower than the previous one.

In experiment [1], `CN(C)c1cc2nc(C(=O)O)c(O)nc2cc1[N+](=O)[O-]` gave a Ki of 910 nM.

For the origin of these results see ChEMBL document CHEMBL1136292, “Synthesis and AMPA receptor antagonistic activity of a novel class of quinoxalinecarboxylic acid with a substituted phenyl group at the C-7 position” (Bioorg Med Chem Lett, 2003).
